Laboratory results taken from article PMC9268414, “Screening an In-House Isoquinoline Alkaloids Library for New Blockers of Voltage-Gated Na^+ Channels Using Voltage Sensor Fluorescent Probes: Hits and Biases” (Molecules, 2022).
Values joined by “and” are separate entries in the source; they are usually repeats but may differ in a detail not shown here. Equal entries are not always repeated.

Assays:
[1] = test system: NaV channels endogenously expressed in GH3b6 cells; experiment: FRET voltage sensor probe (VSP) assay of BTX-induced depolarization in GH3b6 cells; type: cell-based, rat; conditions: GH3b6 cells; for Inhibitory Effects (%) on BTX-induced VSP signal (screening): IA at 10–50 µg/mL co-incubated with 1 µM BTX; for Maximum of Inhibition of BTX-evoked VSP signal / IC50: BTX 1 µM, n = 6; for Maximum of Inhibition of BTX-evoked VSP signal: % printed only; for IC50: read-out: IC50 (µM), inhibition of BTX-evoked VSP signal
hNaV1.3 channel = biological target: T1, hNaV1.3 channel (Homo sapiens, UniProt Q9NY46); experiment: Automated patch-clamp, Na+ currents in HEK293-hNaV1.3 cells; type: cell-based
T1 construct: expressed in transfected cells
T1 sequence (Q9NY46 whole entry): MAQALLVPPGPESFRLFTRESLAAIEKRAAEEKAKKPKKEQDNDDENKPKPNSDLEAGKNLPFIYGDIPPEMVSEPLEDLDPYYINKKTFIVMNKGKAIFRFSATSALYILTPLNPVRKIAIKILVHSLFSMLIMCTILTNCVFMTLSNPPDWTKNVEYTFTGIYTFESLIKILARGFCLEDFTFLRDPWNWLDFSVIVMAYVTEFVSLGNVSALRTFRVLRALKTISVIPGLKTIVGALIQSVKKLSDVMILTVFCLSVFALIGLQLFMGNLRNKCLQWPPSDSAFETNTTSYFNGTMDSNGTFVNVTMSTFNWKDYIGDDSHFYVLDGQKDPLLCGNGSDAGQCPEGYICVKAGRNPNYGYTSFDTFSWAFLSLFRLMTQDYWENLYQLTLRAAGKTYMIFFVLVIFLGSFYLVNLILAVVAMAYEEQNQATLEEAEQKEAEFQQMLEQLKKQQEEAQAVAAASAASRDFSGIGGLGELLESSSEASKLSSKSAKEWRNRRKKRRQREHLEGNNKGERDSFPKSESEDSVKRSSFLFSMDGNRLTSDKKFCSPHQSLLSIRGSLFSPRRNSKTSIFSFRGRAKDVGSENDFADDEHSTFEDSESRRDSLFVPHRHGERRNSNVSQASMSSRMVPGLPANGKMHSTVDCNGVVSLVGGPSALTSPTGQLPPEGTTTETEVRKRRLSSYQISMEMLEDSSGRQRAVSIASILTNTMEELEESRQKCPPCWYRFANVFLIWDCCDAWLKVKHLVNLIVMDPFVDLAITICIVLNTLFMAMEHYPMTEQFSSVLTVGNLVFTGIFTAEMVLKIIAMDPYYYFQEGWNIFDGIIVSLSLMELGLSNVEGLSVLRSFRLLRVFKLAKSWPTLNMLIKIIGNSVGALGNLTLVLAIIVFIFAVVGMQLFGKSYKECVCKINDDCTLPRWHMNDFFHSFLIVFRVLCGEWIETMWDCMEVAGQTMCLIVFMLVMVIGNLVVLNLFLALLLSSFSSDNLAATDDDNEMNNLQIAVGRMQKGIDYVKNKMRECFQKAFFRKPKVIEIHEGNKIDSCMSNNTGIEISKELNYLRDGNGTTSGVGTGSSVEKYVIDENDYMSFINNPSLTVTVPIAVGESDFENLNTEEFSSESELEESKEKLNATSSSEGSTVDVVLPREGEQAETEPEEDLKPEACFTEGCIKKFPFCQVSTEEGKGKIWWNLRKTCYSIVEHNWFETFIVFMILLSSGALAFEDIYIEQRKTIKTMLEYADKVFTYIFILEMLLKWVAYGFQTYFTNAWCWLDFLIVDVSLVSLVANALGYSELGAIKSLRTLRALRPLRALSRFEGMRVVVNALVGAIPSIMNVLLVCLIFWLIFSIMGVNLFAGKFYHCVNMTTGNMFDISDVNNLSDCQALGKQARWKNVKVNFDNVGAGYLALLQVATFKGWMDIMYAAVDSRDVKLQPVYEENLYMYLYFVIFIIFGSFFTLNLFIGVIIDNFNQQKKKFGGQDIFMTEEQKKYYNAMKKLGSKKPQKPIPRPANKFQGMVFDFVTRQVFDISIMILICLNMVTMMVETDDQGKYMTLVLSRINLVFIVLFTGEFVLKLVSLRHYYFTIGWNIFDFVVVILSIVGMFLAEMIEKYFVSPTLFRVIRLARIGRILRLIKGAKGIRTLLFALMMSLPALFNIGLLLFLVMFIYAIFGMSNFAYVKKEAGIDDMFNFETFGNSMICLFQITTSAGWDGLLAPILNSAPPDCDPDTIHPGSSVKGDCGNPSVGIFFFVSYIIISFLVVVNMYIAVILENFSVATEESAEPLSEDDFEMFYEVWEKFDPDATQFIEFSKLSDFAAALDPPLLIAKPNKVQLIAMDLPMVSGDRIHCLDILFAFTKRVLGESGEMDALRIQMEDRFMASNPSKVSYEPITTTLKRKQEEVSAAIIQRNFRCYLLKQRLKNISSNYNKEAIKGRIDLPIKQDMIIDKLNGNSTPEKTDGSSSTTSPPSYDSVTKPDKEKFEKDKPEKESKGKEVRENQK
Description: (§1) GH3b6 cells are a subclone of the GH3 pituitary cell line and were a generous gift from Dr. Françoise Macari (IGF, Montpellier, France). GH3b6 cells were cultivated from passage 14 until passage 32 at 37 °C/5% CO2 in Dubelcco’s Modified Eagle Medium (DMEM)/F12 (Lonza, Basel, Switzerland), supplemented with 10% FBS (Lonza, Basel, Switzerland), 1 mM L-glutamine, and 1 mM penicillin and streptomycin solution. For the fluorescence assay, the GH3b6 cells were seeded in black-walled, clear-bottom, 96-well, tissue culture-treated, and sterile imaging plates (Corning Hazebrouck, France), at a density of 10,000 cells per well, and incubated for 24 h before starting the experiment. The human Nav1.3 (hNav1.3) channel-expressing cell line (HEK293) used in this work was a generous gift from Massimo Mantegazza (IPMC, Nice, France). HEK293-hNaV1.3 cells were cultivated from passage 20 until passage 35 at 37 °C/5% CO2 in a DMEM high glucose medium (4.5 g/l), supplemented with 10% FBS, pyruvate, L-glutamine, and penicillin and streptomycin solution, each one at 1 mM, completed with 800 µg/mL geneticin G418. For the fluorescence assays, the cells were plated at a density of 50,000 cells per well in black-walled, clear-bottom, 96-well plates and then cultured at 37 °C and 5% CO2 for 24 h before the experiments. HEK293 stably expressing hNaV1.2 and hNaV1.6 were cultivated in the same conditions mentioned above for the HEK293-hNaV1.3 cells. For the automated patch-clamp experiments, cells were passaged from 24 to 48 h prior to the experiment and replated in the appropriate quantity to reach 50–70% confluence. For electrophysiological recordings, cells were detached with trypsin-EDTA and diluted in a culture medium. Then, the cells were centrifuged at 800 rpm for 4 min and resuspended (~300,000 cells/mL) in a patch-clamp extracellular solution.
(§2) Whole-cell recordings were used to investigate the effects of oxostephanine, liriodenine, thalmiculine, bebeerine, and protopine on HEK293 cells stably expressing the hNav1.2, hNav1.3, and hNav1.6 channels. Automated patch-clamp recordings were performed using the SyncroPatch 384PE from Nanion (München, Germany). Chips with a single hole (n = 384, series resistance 3.93 ± 1.19 MΩ) were used for HEK293 cell recordings. Pulse generation and data collection were performed with the PatchControl384 v1.9.7 software (Nanion) and the Biomek interface (Beckman Coulter). Whole-cell recordings were conducted according to the recommended procedures of Nanion. The cells were stored in a cell hotel reservoir at 10 °C, with a shaking speed of 60 RPM. After initiating the experiment, cell catch, sealing, whole-cell formation, liquid application, recording, and data acquisition were all performed sequentially and automatically. The intracellular solution contained (in mM): 10 CsCl, 110 CsF, 10 NaCl, 10 EGTA, and 10 HEPES (pH 7.2, osmolarity 280 mOsm), and the extracellular solution contained (in mM): 60 NMDG, 80 NaCl, 4 KCl, 2 CaCl2, 1 MgCl2, 5 Glucose, and 10 HEPES (pH 7.4 (NaOH), osmolarity 280 ± 3 mOsm). Whole-cell experiments were performed at a holding potential of −100 mV at room temperature (18–22 °C). Currents were sampled at 20 kHz. For pharmacological assays, alkaloid solutions were prepared at 30 µM in the extracellular solution supplemented with 0.3% bovine serum albumin and distributed in 384-well compound plates according to a pre-established plate plan. This distribution within compound plates could not be randomized since it would then excessively complexify the methods of analyses. The working compound solution was diluted 3 times in the patch-clamp recording well by adding from 30 to 60 µL of the external solution to reach the final reported concentration and the test volume of 90 µL. The effects of IA (10 µM) or of BTX (1 µM) were measured at the end of a 10 min application time. Activation curves were built by depolarizations lasting for 2000 ms, from −130 mV to 40 mV, using 5 mV increment steps. […]

human NaV1.3 channel = human NaV1.3 channel (Homo sapiens, UniProt Q9NY46); experiment: ANG-2 intracellular Na+ fluorescent assay in HEK293-hNaV1.3 cells; type: cell-based; conditions: IA at 10 µM, BTX 3 µM, HEK293-hNaV1.3
Sequence of human NaV1.3 channel (Q9NY46 whole entry): as above

hNaV1.2 channel = biological target: T2, hNaV1.2 channel (Homo sapiens, UniProt Q99250); experiment: Automated patch-clamp, Na+ currents in HEK293-hNaV1.2 cells; type: cell-based
T2 construct: expressed in transfected cells
T2 sequence (Q99250 whole entry): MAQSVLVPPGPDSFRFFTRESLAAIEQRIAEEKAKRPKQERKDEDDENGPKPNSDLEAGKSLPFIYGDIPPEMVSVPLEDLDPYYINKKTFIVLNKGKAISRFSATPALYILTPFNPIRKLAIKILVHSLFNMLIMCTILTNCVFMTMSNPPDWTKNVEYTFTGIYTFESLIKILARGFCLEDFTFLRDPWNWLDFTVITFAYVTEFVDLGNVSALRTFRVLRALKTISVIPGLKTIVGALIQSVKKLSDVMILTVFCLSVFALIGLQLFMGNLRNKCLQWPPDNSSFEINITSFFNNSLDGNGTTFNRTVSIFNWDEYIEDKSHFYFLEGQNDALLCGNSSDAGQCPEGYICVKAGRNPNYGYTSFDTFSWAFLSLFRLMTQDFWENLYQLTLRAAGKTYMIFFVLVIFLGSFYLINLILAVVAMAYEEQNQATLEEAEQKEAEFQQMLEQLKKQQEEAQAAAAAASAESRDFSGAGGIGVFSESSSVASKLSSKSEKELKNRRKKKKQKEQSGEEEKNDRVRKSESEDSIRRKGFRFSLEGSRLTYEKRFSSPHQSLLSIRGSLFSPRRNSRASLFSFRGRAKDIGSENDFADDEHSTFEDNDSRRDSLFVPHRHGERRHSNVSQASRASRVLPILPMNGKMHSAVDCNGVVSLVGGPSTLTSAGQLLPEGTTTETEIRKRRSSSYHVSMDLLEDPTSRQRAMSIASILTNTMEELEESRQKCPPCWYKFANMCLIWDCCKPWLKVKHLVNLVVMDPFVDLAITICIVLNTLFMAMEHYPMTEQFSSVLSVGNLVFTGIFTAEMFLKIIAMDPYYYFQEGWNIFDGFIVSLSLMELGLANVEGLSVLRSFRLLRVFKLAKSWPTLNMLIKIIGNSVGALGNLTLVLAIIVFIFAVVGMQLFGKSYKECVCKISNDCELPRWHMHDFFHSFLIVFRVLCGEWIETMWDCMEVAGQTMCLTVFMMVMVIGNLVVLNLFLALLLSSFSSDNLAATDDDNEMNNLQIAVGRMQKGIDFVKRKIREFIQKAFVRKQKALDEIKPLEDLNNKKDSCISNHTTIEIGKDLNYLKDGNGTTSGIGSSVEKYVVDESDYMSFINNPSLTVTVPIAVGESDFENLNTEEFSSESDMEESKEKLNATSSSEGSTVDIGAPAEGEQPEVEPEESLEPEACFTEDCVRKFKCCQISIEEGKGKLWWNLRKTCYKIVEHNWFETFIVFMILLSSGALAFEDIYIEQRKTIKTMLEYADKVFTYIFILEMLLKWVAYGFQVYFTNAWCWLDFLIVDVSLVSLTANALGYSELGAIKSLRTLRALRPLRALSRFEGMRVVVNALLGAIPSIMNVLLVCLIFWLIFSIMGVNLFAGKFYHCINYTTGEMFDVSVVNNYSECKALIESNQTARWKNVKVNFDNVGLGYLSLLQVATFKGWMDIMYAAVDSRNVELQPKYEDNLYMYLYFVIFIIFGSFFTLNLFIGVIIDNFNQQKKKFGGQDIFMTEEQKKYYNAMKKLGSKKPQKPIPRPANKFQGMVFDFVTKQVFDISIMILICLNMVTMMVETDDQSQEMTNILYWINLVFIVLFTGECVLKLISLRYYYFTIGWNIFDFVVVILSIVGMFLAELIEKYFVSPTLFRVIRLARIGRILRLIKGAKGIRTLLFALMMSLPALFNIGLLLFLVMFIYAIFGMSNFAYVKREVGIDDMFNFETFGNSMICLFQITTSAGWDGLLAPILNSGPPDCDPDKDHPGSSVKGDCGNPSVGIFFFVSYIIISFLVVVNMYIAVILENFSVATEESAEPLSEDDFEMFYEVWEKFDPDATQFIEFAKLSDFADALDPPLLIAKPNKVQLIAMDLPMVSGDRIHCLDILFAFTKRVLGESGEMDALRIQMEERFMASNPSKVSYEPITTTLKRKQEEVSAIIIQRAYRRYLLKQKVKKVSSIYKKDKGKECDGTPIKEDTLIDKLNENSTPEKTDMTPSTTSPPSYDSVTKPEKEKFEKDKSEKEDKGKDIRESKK
Description: as §1, §2

hNaV1.6 channel = biological target: T3, hNaV1.6 channel (Homo sapiens, UniProt Q9UQD0); experiment: Automated patch-clamp, Na+ currents in HEK293-hNaV1.6 cells; type: cell-based
T3 construct: expressed in transfected cells
Description: as §1, §2

[2] = 10 µM, Vm between −20 mV and 30 mV

Q: With `COc1ccc2c(c1OC)C(O)C1c3c(cc4c(c3-2)OCO4)CCN1C` (stereo not shown) [IA36, sukhodianine] as the compound, how does the “Inhibitory Effects (%) on BTX-induced VSP signal (screening)” value (shortened to “Inhibitory Effects (%)”) [1] read?
A: 92.2%

Q: Which results are given for `Cc1c[nH]c(C)c1C(=O)OC(C)C1=CCC23OCCN(C)CC12CC(O)C12OC4(O)CCC1(C)C(CC=C32)C4` (stereo not shown) [BTX, batrachotoxin, reference compound]?
A: EC50 of BTX-induced VSP signal ratio ([1]; BTX 0.01 to 3 µM, Na+ raised to 80 mM): 270 ± 60 nM; Increase of the AUC of current traces (inactivation rate of hNaV1.3) (hNaV1.3 channel; BTX 1 µM, data not shown): 55 fold

Q: Which “Inhibitory Effects (%)” value [1] does the source give for `COc1ccc2cc1Oc1ccc(cc1)C[C@H]1c3cc(c(OC)cc3CCN1C)Oc1c(OC)c(OC)cc3c1[C@H](C2)N(C)CC3` [IA50, tetrandine] here?
A: 78.3%

Q: thalmiculine [IA49] was tested. Which “Maximum of Inhibition of BTX-evoked VSP signal” value [1] did it give?
A: 31.07 ± 4.04%

Q: And the IC50 [1]?
A: 0.38 ± 0.19 µM

Q: What about the “Inhibitory Effects (%)” value [1] of the same compound?
A: 91.1%

Q: And the “Inhibition of BTX-induced [Na+]i elevation (ANG-2 signal)” value (human NaV1.3 channel)?
A: no significant inhibitory effects

Q: And the “Effect on Na+ currents elicited by hNaV1.2” value (hNaV1.2 channel; 10 µM, HEK293-hNaV1.2)?
A: no effects

Q: And the “Change in V1/2 of activation and inactivation vs control” value (“Change” for short) (hNaV1.2 channel; hNaV1.2, 10 µM)?
A: ns

Q: And the “Effect on Na+ currents elicited by hNaV1.3” value (hNaV1.3 channel; 10 µM, HEK293-hNaV1.3, without BTX)?
A: no effects

Q: And the “Change” value (hNaV1.3 channel; hNaV1.3, 10 µM)?
A: ns

Q: What about the “Effect on Na+ currents elicited by hNaV1.6” value (hNaV1.6 channel; 10 µM, HEK293-hNaV1.6) of the same compound?
A: no effects

Q: And the “Change” value (hNaV1.6 channel; hNaV1.6, 10 µM)?
A: ns

Q: How did the “Maximum of Inhibition of BTX-evoked VSP signal” value [1] turn out when `COc1cc2c3cc1Oc1cc(ccc1O)CC1c4c(cc(OC)c(O)c4Oc4ccc(cc4)CC3N(C)CC2)CCN1C` (stereo not shown) [IA52, bebeerine] was run?
A: 41.04 ± 3.44%

Q: What about the IC50 [1] of the same compound?
A: 0.74 ± 0.11 µM

Q: What about the “Inhibitory Effects (%)” value [1] of the same compound?
A: 81.9%

Q: What about the inhibition at 10 µM (human NaV1.3 channel; read-out: Inhibition of BTX-induced [Na+]i elevation (ANG-2 signal)) of the same compound?
A: 18 ± 2%

Q: What about the inhibition at 10 µM (hNaV1.2 channel; [2]) of the same compound?
A: 42 to 50%

Q: What about the IC50 (hNaV1.2 channel; estimated from inhibition at 10 µM, read-out: IC50 on Na+ currents elicited by hNaV1.2) of the same compound?
A: < 10000 nM and > 10000 nM

Q: What about the “Change” value (hNaV1.2 channel; hNaV1.2, 10 µM) of the same compound?
A: no significant change

Q: And the “Activation Slope (±SEM)” value (hNaV1.2 channel; hNaV1.2, 10 µM bebeerine)?
A: 5.8 ± 0.3 ^1

Q: What about the “Activation V1/2 (±SEM, mV)” value (hNaV1.2 channel; hNaV1.2, 10 µM bebeerine) of the same compound?
A: −29.1 ± 1.1 (n = 36) mV

Q: What about the “Inactivation Slope (±SEM)” value (hNaV1.2 channel; hNaV1.2, 10 µM bebeerine) of the same compound?
A: −8.5 ± 0.3 ^4

Q: And the “Inactivation V1/2 (±SEM, mV)” value (hNaV1.2 channel; hNaV1.2, 10 µM bebeerine)?
A: −62.3 ± 1.1 (n = 21) mV

Q: What about the inhibition at 10 µM (hNaV1.3 channel; [2]) of the same compound?
A: 60 to 64%

Q: And the inhibition at 10 µM (hNaV1.3 channel; 10 µM, at −15 mV)?
A: 64 ± 4%

Q: And the “Shift in V1/2 activation vs control” value (hNaV1.3 channel; hNaV1.3, 10 µM)?
A: −3.6 ± 1.0

Q: What about the “Activation Slope (±SEM)” value (hNaV1.3 channel; hNaV1.3, 10 µM bebeerine) of the same compound?
A: 6.4 ± 0.3 ^2

Q: What about the “Activation V1/2 (±SEM, mV)” value (hNaV1.3 channel; hNaV1.3, 10 µM bebeerine) of the same compound?
A: −26.9 ± 0.7 (n = 51) mV

Q: And the “Inactivation Slope (±SEM)” value (hNaV1.3 channel; hNaV1.3, 10 µM bebeerine)?
A: −8.9 ± 0.3 ^5

Q: What about the “Inactivation V1/2 (±SEM, mV)” value (hNaV1.3 channel; hNaV1.3, 10 µM bebeerine) of the same compound?
A: −60.2 ± 0.9 (n = 26) mV

Q: And the inhibition at 10 µM (hNaV1.6 channel; [2])?
A: 70 to 74%

Q: What about the inhibition at 10 µM (hNaV1.6 channel; 10 µM, at −20 mV) of the same compound?
A: 74 ± 3%

Q: What about the IC50 (hNaV1.6 channel; estimated from inhibition at 10 µM, read-out: IC50 on Na+ currents elicited by hNaV1.6) of the same compound?
A: < 10000 nM and > 10000 nM

Q: And the “Change” value (hNaV1.6 channel; hNaV1.6, 10 µM)?
A: no significant change

Q: And the “Activation Slope (±SEM)” value (hNaV1.6 channel; hNaV1.6, 10 µM bebeerine)?
A: 7.0 ± 0.3 ^3

Q: What about the “Activation V1/2 (±SEM, mV)” value (hNaV1.6 channel; hNaV1.6, 10 µM bebeerine) of the same compound?
A: −22.1 ± 0.7 (n = 32) mV

Q: And the “Inactivation Slope (±SEM)” value (hNaV1.6 channel; hNaV1.6, 10 µM bebeerine)?
A: −9.0 ± 0.3 ^6

Q: And the “Inactivation V1/2 (±SEM, mV)” value (hNaV1.6 channel; hNaV1.6, 10 µM bebeerine)?
A: −60.2 ± 0.7 (n = 24) mV
